Measured values reported in the supplement of paper PMC8671470.

Tests used:
Conditions in all cases: 72 h
HL-60 [1] = test: cell viability (% survival relative to DMSO control); higher = less cytotoxic
How it was run: (§1)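 A rescreen of the full library used HL-60 cells in RPMI 1640 with 10% FBS on 384-well plates, run in duplicate at five tenfold concentrations (1–10,000 nM). Each screen included DMSO or 100 nM of one of three metabolic inhibitors and ran 72 h at 37 °C, 5% CO2. CellTiter-Glo viability was scaled between DMSO and 10 μM proteasome-inhibitor wells. Any area under the curve comes from four-parameter log-logistic fits with drc and PharmacoGx.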

HL-60 [2] = test: area under dose-response curve (viability, 1 nM-10 uM) (fraction (0-1)); higher = more sensitive
How it was run: as §1

ML-2 [3] = test: cell viability (% survival relative to DMSO control, bortezomib = 0%); higher = less cytotoxic
How it was run: (§2)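 Fifteen myeloid leukaemia cell lines (10 AML, 5 CML) were seeded at a density titrated to the linear growth range into 384-well plates pre-printed with compounds at 1, 10, 100, 1000 or 10000 nM in duplicate. Plates were incubated for 72 h at 37 °C with 5% CO2. Viability was then read by CellTiter-Glo luminescence. Each value is percent survival averaged over the duplicates, with vehicle set to 100% and a 10 µM positive control to 0%.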

MV4-11 [4] = test: as above
How it was run: as §2

MOLM-13 [5] = test: as above
How it was run: as §2

LAMA-84 [6] = test: as above
How it was run: as §2

BV-173 [7] = test: as above
How it was run: as §2

SHI-1 [8] = test: as above
How it was run: as §2

KG-1 [9] = test: as above
How it was run: as §2

HEL [10] = test: as above
How it was run: as §2

K-562 [11] = test: as above
How it was run: as §2

KCL-22 [12] = test: as above
How it was run: as §2

HL-60 [13] = test: as above
How it was run: as §2

THP-1 = test system: THP-1
How it was run: (§3)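 Seeded in RPMI 1640 at densities within the linear growth range, fifteen myeloid leukaemia cell lines were dispensed into 384-well plates with acoustically pre-printed compounds spanning five tenfold doses from 1 to 10,000 nM, in duplicate. The plates were kept for 72 h at 37 °C in 5% CO2 before luminescent ATP viability was measured and normalised to vehicle and to a positive control at 10 µM. Curves were fitted with a four-parameter log-logistic model. The IC50 was taken from those curves.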

ML-2 [14] = test system: ML-2
How it was run: as §3

MV4-11 [15] = test system: MV4-11
How it was run: as §3

MOLM-13 [16] = test system: MOLM-13
How it was run: as §3

LAMA-84 [17] = test system: LAMA-84
How it was run: as §3

BV-173 [18] = test system: BV-173
How it was run: as §3

SHI-1 [19] = test system: SHI-1
How it was run: as §3

KG-1 [20] = test system: KG-1
How it was run: as §3

HEL [21] = test system: HEL
How it was run: as §3

K-562 [22] = test system: K-562
How it was run: as §3

KU-812 = test system: KU-812
How it was run: as §3

KCL-22 [23] = test system: KCL-22
How it was run: as §3

NOMO-1 = test system: NOMO-1
How it was run: as §3

HL-60 [24] = test system: HL-60
How it was run: as §3

Mono-Mac-6 = test system: Mono-Mac-6
How it was run: as §3

O=c1oc2c(cc1O)oc(=O)c1cc(O)c(O)c(O)c12 [Galloflavin]
cell viability [%], HL-60 [1]
Conditions | 0.001 µM | 0.01 µM | 0.1 µM | 1 µM | 10 µM
co-treatment: AZD3965 100 nM | 81.9 | 97.2 | 110 | 112 | 99.6
co-treatment: DMSO vehicle | 102 | 84.8 | 104 | 109 | 99.28
co-treatment: GSK2194069 100 nM | 92.6 | 84.7 | 104 | 105 | 96.52
co-treatment: pictilisib 100 nM | 109 | 93.7 | 94.13 | 107 | 98.54

Conditions | area under dose-response curve, co-treatment: AZD3965 100 nM | area under dose-response curve, co-treatment: DMSO vehicle | area under dose-response curve, co-treatment: GSK2194069 100 nM | area under dose-response curve, co-treatment: pictilisib 100 nM | cell viability, 1 nM [%] | cell viability, 10 nM [%] | cell viability, 100 nM [%] | cell viability, 1000 nM [%] | cell viability, 10000 nM [%]
BV-173 [7] | – | – | – | – | 91 | 97.5 | 99.4 | 108 | 118
HEL [10] | – | – | – | – | 99.7 | 98.6 | 122 | 106 | 107
HL-60 [2] | < 0.0301 | < 0.0301 | < 0.0301 | < 0.0301 | – | – | – | – | –
HL-60 [13] | – | – | – | – | 108 | 101 | 114 | 180 | 186
K-562 [11] | – | – | – | – | 107 | 105 | 100 | 116 | 112
KCL-22 [12] | – | – | – | – | 103 | 95.3 | 102 | 104 | 112
KG-1 [9] | – | – | – | – | 92.7 | 97.2 | 114 | 115 | 100
LAMA-84 [6] | – | – | – | – | 93.7 | 95 | 106 | 98.2 | 99.4
ML-2 [3] | – | – | – | – | 101 | 95 | 113 | 111 | 115
MOLM-13 [5] | – | – | – | – | 99.3 | 120 | 92 | 115 | 119
MV4-11 [4] | – | – | – | – | 100 | 102 | 94.5 | 106 | 102
SHI-1 [8] | – | – | – | – | 108 | 105 | 106 | 112 | 104

Conditions | IC50 (cell viability) [µM]
BV-173 [18] | > 10
HEL [21] | > 10
HL-60 [24] | > 10
K-562 [22] | > 10
KCL-22 [23] | > 10
KG-1 [20] | > 10
KU-812 | > 10
LAMA-84 [17] | > 10
ML-2 [14] | > 10
MOLM-13 [16] | > 10
MV4-11 [15] | > 10
Mono-Mac-6 | > 10
NOMO-1 | > 10
SHI-1 [19] | > 10
THP-1 | > 10

Nc1ccn([C@@H]2O[C@H](CO)[C@@H](O)C2(F)F)c(=O)n1 [Gemcitabine]
cell viability [%], HL-60 [1]
Conditions | 0.001 µM | 0.01 µM | 0.1 µM | 1 µM | 10 µM
co-treatment: AZD3965 100 nM | 101 | 82.7 | 5.92 | 4.29 | 3.15
co-treatment: DMSO vehicle | 99.76 | 85.6 | 7.57 | 6.18 | 3.121
co-treatment: GSK2194069 100 nM | 104 | 84.92 | 7.69 | 5.54 | 3.32
co-treatment: pictilisib 100 nM | 97.8 | 74.5 | 6.77 | 5.09 | 2.52

Conditions | area under dose-response curve, co-treatment: AZD3965 100 nM | area under dose-response curve, co-treatment: DMSO vehicle | area under dose-response curve, co-treatment: GSK2194069 100 nM | area under dose-response curve, co-treatment: pictilisib 100 nM | cell viability, 1 nM [%] | cell viability, 10 nM [%] | cell viability, 100 nM [%] | cell viability, 1000 nM [%] | cell viability, 10000 nM [%]
BV-173 [7] | – | – | – | – | 83.3 | -0.488 | 0.0466 | 0.053 | -0.136
HEL [10] | – | – | – | – | 105 | 1.42 | -0.289 | 0.472 | 0.991
HL-60 [2] | 0.648 | 0.631 | 0.634 | 0.663 | – | – | – | – | –
HL-60 [13] | – | – | – | – | 104 | 38.9 | -0.42 | 0.321 | 0.435
K-562 [11] | – | – | – | – | 92.6 | 62.1 | 37.3 | 29.6 | 28.7
KCL-22 [12] | – | – | – | – | 104 | 37.7 | 9.55 | 8.82 | 9.48
KG-1 [9] | – | – | – | – | 105 | 33.4 | 9.8 | 11.5 | 9.39
LAMA-84 [6] | – | – | – | – | 95.6 | 45.7 | 5.22 | 4.64 | 4.9
ML-2 [3] | – | – | – | – | 96.3 | 3.45 | 1.35 | 2.33 | 2.18
MOLM-13 [5] | – | – | – | – | 96.6 | 2.43 | 0.0219 | 0.303 | 0.34
MV4-11 [4] | – | – | – | – | 78.5 | -0.0353 | -0.464 | 0.602 | 0.268
SHI-1 [8] | – | – | – | – | 101 | 25.9 | 34.1 | 0.0306 | -0.276

Conditions | IC50 (cell viability) [µM]
BV-173 [18] | 0.00213
HEL [21] | 0.00346
HL-60 [24] | 0.00803
K-562 [22] | 0.0164
KCL-22 [23] | 0.00687
KG-1 [20] | 0.0061
KU-812 | 0.0033
LAMA-84 [17] | 0.00897
ML-2 [14] | 0.00312
MOLM-13 [16] | 0.00311
MV4-11 [15] | 0.00188
Mono-Mac-6 | 0.00301
NOMO-1 | 0.0057
SHI-1 [19] | 0.00479
THP-1 | 0.00687

N[C@@H](CCC(=O)N[C@@H](CS)C(=O)NCC(=O)O)C(=O)O [Glutathione]
cell viability [%], HL-60 [1]
Conditions | 0.001 µM | 0.01 µM | 0.1 µM | 1 µM | 10 µM
co-treatment: AZD3965 100 nM | 99.7 | 98.74 | 99.1 | 102 | 99.8
co-treatment: DMSO vehicle | 101 | 99.78 | 99.69 | 98.63 | 102.2
co-treatment: GSK2194069 100 nM | 96.2 | 100.3 | 95.1 | 101 | 100.27
co-treatment: pictilisib 100 nM | 96.6 | 96.4 | 86.3 | 96.3 | 106

Conditions | area under dose-response curve, co-treatment: AZD3965 100 nM | area under dose-response curve, co-treatment: DMSO vehicle | area under dose-response curve, co-treatment: GSK2194069 100 nM | area under dose-response curve, co-treatment: pictilisib 100 nM | cell viability, 1 nM [%] | cell viability, 10 nM [%] | cell viability, 100 nM [%] | cell viability, 1000 nM [%] | cell viability, 10000 nM [%]
BV-173 [7] | – | – | – | – | 102 | 99.4 | 94.4 | 101 | 91.9
HEL [10] | – | – | – | – | 106 | 95.7 | 96.1 | 94.2 | 111
HL-60 [2] | < 0.0301 | < 0.0301 | < 0.0301 | < 0.0301 | – | – | – | – | –
HL-60 [13] | – | – | – | – | 77.8 | 94.8 | 98.7 | 70.5 | 105
K-562 [11] | – | – | – | – | 94.4 | 106 | 92.2 | 93.6 | 98.7
KCL-22 [12] | – | – | – | – | 101 | 110 | 91.4 | 95.6 | 107
KG-1 [9] | – | – | – | – | 106 | 101 | 111 | 95.7 | 110
LAMA-84 [6] | – | – | – | – | 100 | 98.1 | 97.6 | 98.1 | 104
ML-2 [3] | – | – | – | – | 93.2 | 106 | 103 | 93 | 104
MOLM-13 [5] | – | – | – | – | 111 | 114 | 91.4 | 92.5 | 92.1
MV4-11 [4] | – | – | – | – | 106 | 99.2 | 107 | 80.9 | 106
SHI-1 [8] | – | – | – | – | 99.3 | 106 | 106 | 97.5 | 95.3

Conditions | IC50 (cell viability) [µM]
BV-173 [18] | > 10
HEL [21] | > 10
HL-60 [24] | > 10
K-562 [22] | > 10
KCL-22 [23] | > 10
KG-1 [20] | > 10
KU-812 | > 10
LAMA-84 [17] | > 10
ML-2 [14] | > 10
MOLM-13 [16] | > 10
MV4-11 [15] | > 10
Mono-Mac-6 | > 10
NOMO-1 | > 10
SHI-1 [19] | > 10
THP-1 | > 10
